Results published in patent publication US11505558B1, “Antiviral heterocyclic compounds” (Enanta Pharmaceuticals, Inc., priority 2019, dated 2022).
pEC50: −log10 of the molar value.

tested on: genotype A, "Long" strain RSV; experiment: RSV-A assay (CPE, ATPlite readout in Hep-2 cells); assay type: cell-based; conditions: human respiratory syncytial virus, HEp-2, Hep-2 cells, genotype A "Long" strain RSV, MOI 0.1; read-out: Human RSV-A (“Long” strain) EC50
Method in brief: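 Hep-2 cells (8,000/well) received 2-fold serial compound dilutions in duplicate and RSV Long strain at MOI 0.1. After 5 days' incubation, cell health was read as ATP by ATPlite luminescence, with virus-only and uninfected controls defining max and minimum CPE; EC50 reported.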

Row | pEC50 | Compound
1 | > 6.70 | C[C@]1(C(N)=O)COc2c1cc([C@@](O)(CNC(=O)c1ccc(OC3CC3)c(-c3cnc(C4CC4)nc3)c1)C(F)(F)F)nc2-c1ccc(F)cc1 [Example 112]
2 | > 6.70 | Cc1cc2cc(C(=O)NC[C@](O)(c3cc4c(c(-c5ccc(F)cc5)n3)OC[C@]4(C)C(N)=O)C(F)(F)F)cc(NC(=O)C3(F)CC3)c2nc1C [Example 662]
3 | > 6.70 | C[C@]1(C(N)=O)COc2c1cc([C@@](O)(CNC(=O)c1ccc(N3CCC3)c(OC3CC3)c1)C(F)(F)F)nc2-c1ccc(F)cc1 [Example 159]
4 | > 6.70 | CN1Cc2cc(C(=O)NC[C@](O)(c3cc4c(c(-c5ccc(F)c(Cl)c5)n3)OC[C@]4(C)C(N)=O)C3CC3)ccc2C1=O [Example 645]
5 | > 6.70 | CNC(=O)[C@@]1(C)COc2c1cc([C@@](O)(CNC(=O)c1cc(NC(N)=O)c3ncccc3c1)C(F)(F)F)nc2-c1ccc(F)cc1 [Example 284]
6 | > 6.70 | Cc1cnc2c(OCC(N)=O)cc(C(=O)NC[C@](O)(c3cc4c(c(-c5ccc(F)c(Cl)c5)n3)OC[C@]4(C)C(N)=O)C(F)(F)F)cc2c1 [Example 367]
7 | < 6.70 | COc1cc(C(=O)NC[C@](O)(c2cc3c(c(-c4ccc(F)cc4)n2)OC[C@]3(C)CNCC2CC2)C(F)(F)F)ccc1OC(F)F [Example 41]
8 | > 6.70 | COc1cc(C(=O)NC[C@](O)(c2cc3c(c(-c4ccc(F)cc4)n2)OC[C@]3(C)C(N)=O)C(F)(F)F)ccc1-c1cnoc1C [Example 185]
9 | < 6.70 | COc1cc(C(=O)NC[C@](O)(c2cc3c(c(C#Cc4cccc(F)c4)n2)OC[C@]3(C)C(N)=O)C(F)(F)F)ccc1OC1CC1 [Example 516]
10 | > 6.70 | C[C@]1(C(=O)NC2(C#N)CC2)COc2c1cc([C@@](O)(CNC(=O)c1cc(OC3CC3)c3ncccc3c1)C(F)(F)F)nc2-c1ccc(F)cc1 [Example 450]
11 | > 6.70 | C[C@]1(C(N)=O)COc2c1cc([C@@](O)(CNC(=O)c1cc(C(F)(F)F)c3ncccc3c1)C(F)(F)F)nc2-c1ccc(F)cc1 [Example 64]
12 | < 6.70 | CC(=O)NCCOc1cc(C(=O)NC[C@](O)(c2cc3c(c(-c4ccc(F)cc4)n2)OC[C@]3(C)C(N)=O)C(F)(F)F)cc2cccnc12 [Example 357]
13 | < 6.70 | C[C@]1(C(=O)N2CC[C@@H](O)C2)COc2c1cc([C@@](O)(CNC(=O)c1cc(OC3CC3)c3ncccc3c1)C(F)(F)F)nc2-c1ccc(F)cc1 [Example 468]
14 | < 6.70 | COc1ncc(-c2cc(C(=O)NC[C@](O)(c3cc4c(c(-c5ccc(F)cc5)n3)OC[C@]4(C)C(N)=O)C(F)(F)F)ccc2OC2CC2)s1 [Example 130]
15 | > 6.70 | C[C@]1(C(=O)NCC(N)=O)COc2c1cc([C@@](O)(CNC(=O)c1cc(OC3CC3)c3ncccc3c1)C(F)(F)F)nc2-c1ccc(F)cc1 [Example 476]
16 | > 6.70 | CCc1ncc(-c2cc(C(=O)NC[C@](O)(c3cc4c(c(-c5ccc(F)cc5)n3)OC[C@]4(C)C(N)=O)C(F)(F)F)ccc2OC2CC2)cn1 [Example 131]
17 | > 6.70 | COc1cc(OC)c2cc(C(=O)NC[C@](O)(c3cc4c(c(-c5ccc(F)cc5)n3)OC[C@]4(C)C(N)=O)C(F)(F)F)[nH]c2c1 [Example 332]
18 | < 6.70 | C[C@]1(C(N)=O)COc2c1cc([C@@](O)(CNC(=O)c1cnc3ccccc3n1)C(F)(F)F)nc2-c1ccc(F)cc1 [Example 237]
19 | > 6.70 | CN1Cc2cc(C(=O)NC[C@](O)(c3cc4c(c(-c5ccc(F)cc5)n3)OC[C@]4(C)C(N)=O)C(F)(F)F)ccc2C1=O [Example 644]
20 | > 6.70 | COc1nc2ccc(C(=O)NC[C@](O)(c3cc4c(c(-c5ccc(F)cc5)n3)OC[C@]4(C)C(N)=O)C(F)(F)F)cc2s1 [Example 312]
21 | < 6.70 | C[C@]1(C(N)=O)COc2c1cc([C@@](O)(CNC(=O)c1ccc(OC3CC3)c(-c3ccc(C(F)(F)F)cn3)c1)C(F)(F)F)nc2-c1ccc(F)cc1 [Example 108]
22 | > 6.70 | C[C@]1(C(N)=O)COc2c1cc([C@@](O)(CNC(=O)c1ccc(OC3CC3)c(N3CCOCC3)c1)C(F)(F)F)nc2-c1ccc(F)cc1 [Example 133]
